Test results: ChEMBL document CHEMBL1143882, “Selective cell adhesion inhibitors: Barbituric acid based alpha4beta7--MAdCAM inhibitors” (Bioorg Med Chem Lett, 2008)

How the values were obtained:
[1] = target: T1, Integrin alpha-4/beta-7 (Homo sapiens, UniProt P13612+P26010); assay: Inhibition of human integrin alpha-4-beta-7-MAdCAM interaction in human RPMI 8866 cells by whole-cell adhesion assay; format: cell-based
T1 sequence (P13612 whole entry): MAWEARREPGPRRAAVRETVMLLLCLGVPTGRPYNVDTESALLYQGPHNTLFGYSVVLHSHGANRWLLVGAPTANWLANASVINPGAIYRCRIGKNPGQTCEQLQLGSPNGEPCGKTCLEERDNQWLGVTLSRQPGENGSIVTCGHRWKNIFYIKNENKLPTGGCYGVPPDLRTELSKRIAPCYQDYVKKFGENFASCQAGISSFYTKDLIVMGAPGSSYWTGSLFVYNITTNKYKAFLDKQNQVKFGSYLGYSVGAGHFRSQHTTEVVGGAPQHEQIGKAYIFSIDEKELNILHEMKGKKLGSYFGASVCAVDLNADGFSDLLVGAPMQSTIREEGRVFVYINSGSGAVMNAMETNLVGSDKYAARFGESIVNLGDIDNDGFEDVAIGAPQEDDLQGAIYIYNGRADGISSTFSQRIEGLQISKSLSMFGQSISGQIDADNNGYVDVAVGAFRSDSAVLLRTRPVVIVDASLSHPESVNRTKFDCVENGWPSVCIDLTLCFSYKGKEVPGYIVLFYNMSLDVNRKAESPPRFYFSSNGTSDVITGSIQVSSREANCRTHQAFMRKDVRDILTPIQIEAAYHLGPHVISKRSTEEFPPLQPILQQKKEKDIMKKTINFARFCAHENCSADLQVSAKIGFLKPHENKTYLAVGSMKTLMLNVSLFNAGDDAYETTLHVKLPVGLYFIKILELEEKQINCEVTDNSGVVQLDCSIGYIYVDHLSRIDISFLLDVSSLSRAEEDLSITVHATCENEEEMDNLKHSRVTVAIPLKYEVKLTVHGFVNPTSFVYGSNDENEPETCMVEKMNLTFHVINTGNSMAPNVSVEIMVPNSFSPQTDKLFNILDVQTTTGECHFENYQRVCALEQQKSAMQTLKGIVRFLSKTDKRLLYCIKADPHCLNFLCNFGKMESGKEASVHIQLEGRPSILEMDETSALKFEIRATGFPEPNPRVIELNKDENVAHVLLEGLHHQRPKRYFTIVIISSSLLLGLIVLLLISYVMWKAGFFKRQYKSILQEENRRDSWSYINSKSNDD
T1 sequence (P26010 whole entry): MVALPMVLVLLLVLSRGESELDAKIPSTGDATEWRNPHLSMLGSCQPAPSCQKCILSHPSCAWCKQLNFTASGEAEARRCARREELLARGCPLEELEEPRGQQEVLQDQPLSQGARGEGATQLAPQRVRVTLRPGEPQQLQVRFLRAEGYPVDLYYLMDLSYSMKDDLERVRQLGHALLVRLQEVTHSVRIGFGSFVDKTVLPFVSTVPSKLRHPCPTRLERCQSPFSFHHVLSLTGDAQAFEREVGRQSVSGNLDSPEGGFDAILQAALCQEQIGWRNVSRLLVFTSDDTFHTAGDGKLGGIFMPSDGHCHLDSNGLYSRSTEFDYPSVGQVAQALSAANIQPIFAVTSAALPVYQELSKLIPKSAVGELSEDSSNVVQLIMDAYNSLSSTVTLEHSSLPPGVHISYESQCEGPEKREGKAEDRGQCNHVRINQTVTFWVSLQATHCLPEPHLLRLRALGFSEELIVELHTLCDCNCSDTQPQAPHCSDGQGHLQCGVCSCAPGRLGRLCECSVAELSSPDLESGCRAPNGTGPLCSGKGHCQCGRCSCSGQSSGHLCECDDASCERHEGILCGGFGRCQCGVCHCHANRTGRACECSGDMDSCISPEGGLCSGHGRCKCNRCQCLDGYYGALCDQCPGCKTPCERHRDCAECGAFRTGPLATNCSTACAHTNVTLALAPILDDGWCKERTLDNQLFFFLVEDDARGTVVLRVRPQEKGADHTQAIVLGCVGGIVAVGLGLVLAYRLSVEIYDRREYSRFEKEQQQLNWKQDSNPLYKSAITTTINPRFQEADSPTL

[2] = target: Integrin alpha-4/beta-1 (Homo sapiens, UniProt P05556+P13612); assay: Inhibition of integrin alpha-4-beta-1-VCAM interaction; format: protein-complex assay
Sequence of Integrin alpha-4/beta-1 (P05556 whole entry, one chain of several): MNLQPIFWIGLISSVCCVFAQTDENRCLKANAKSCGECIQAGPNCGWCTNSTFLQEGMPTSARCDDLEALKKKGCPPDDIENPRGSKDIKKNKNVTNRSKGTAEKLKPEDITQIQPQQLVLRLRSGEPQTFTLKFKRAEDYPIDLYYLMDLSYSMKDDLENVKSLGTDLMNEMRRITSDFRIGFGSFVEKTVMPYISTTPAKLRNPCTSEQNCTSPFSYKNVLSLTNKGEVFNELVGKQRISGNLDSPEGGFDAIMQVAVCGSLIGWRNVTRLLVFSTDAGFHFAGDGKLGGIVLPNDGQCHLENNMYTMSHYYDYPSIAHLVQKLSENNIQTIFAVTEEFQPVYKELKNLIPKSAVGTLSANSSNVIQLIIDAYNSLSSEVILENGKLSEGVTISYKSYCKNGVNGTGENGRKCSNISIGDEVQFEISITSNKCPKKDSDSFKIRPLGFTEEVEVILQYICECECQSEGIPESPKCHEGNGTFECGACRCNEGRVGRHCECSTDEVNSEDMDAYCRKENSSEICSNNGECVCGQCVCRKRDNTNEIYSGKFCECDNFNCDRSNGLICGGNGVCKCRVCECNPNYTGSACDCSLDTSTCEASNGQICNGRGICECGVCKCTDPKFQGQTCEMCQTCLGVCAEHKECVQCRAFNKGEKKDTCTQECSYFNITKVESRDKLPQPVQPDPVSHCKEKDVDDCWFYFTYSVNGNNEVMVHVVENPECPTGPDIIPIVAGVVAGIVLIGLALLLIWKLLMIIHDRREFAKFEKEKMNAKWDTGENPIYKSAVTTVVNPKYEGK

[3] = target: Integrin alpha-5/beta-1 (Homo sapiens, UniProt P05556+P08648); assay: Inhibition of integrin alpha-5-beta-1-fibronectin interaction; format: protein-complex assay
Sequence of Integrin alpha-5/beta-1 (P05556 21-798 limits assumed): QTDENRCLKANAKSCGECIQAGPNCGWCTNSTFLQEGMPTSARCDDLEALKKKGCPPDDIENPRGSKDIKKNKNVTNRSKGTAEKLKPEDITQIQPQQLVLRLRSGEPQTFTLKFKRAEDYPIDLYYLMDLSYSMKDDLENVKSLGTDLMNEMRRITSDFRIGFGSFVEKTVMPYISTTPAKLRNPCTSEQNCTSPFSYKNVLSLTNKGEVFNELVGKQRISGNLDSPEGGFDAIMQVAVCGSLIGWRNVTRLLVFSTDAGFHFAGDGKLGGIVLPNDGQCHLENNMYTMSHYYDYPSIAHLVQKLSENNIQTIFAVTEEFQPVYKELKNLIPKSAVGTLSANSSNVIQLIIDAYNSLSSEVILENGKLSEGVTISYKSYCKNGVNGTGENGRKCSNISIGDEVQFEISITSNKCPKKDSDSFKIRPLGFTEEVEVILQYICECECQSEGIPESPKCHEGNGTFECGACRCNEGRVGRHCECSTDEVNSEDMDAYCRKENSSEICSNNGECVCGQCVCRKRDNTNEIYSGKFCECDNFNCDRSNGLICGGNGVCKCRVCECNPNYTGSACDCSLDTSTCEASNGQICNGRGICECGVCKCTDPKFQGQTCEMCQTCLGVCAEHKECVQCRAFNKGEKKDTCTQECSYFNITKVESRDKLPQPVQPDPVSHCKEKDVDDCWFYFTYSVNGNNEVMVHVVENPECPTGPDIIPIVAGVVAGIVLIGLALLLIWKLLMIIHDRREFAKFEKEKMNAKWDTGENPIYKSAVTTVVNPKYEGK
Sequence of Integrin alpha-5/beta-1 (P08648 42-894 limits assumed): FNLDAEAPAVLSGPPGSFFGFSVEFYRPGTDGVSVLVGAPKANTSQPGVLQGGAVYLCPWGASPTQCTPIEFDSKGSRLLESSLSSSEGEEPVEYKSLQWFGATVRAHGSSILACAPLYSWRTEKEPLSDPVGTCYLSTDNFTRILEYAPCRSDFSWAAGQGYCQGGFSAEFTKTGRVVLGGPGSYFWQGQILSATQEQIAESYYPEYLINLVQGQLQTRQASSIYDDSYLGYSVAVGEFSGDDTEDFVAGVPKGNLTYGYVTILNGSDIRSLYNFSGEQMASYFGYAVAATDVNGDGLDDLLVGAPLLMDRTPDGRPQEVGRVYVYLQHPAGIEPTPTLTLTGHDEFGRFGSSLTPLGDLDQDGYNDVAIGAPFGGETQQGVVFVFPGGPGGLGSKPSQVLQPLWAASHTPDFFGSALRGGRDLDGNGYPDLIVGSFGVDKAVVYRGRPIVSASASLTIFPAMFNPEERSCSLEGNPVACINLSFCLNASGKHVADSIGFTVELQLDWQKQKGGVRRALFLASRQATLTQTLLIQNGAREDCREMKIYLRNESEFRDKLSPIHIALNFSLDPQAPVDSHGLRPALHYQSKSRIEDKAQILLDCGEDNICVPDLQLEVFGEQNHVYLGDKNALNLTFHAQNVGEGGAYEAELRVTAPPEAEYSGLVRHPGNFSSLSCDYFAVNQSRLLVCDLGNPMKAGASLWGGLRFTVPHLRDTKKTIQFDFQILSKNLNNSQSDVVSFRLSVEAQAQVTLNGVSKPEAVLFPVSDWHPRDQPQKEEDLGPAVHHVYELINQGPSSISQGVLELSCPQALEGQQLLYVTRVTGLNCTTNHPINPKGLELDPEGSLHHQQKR
Sequence of Integrin alpha-5/beta-1 (P08648 895-1049 limits assumed): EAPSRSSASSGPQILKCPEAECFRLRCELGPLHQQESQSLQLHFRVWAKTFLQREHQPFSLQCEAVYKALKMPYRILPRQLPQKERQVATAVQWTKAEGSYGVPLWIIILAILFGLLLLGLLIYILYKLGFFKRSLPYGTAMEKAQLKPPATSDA

[4] = Half life in mouse; format: ADME, organism-based; settings: in vivo
[5] = organism: Mus musculus; assay: AUC in mouse; format: ADME, organism-based, Plasma; settings: in vivo
[6] = Oral bioavailability in mouse; format: ADME, organism-based; settings: in vivo
[7] = Clearance in mouse; format: ADME, organism-based; settings: in vivo
[8] = Volume of distribution in mouse; format: ADME, organism-based; settings: in vivo

| SMILES | IC50 [1] [nM] | further results |
| --- | --- | --- |
| O=C1NC(=O)N(c2ccccc2)C(=O)/C1=C\c1cc2ccccc2[nH]1 | 10000 |  |
| CC(C)(C)N1C(=O)NC(=O)/C(=C/c2c[nH]c3ccccc23)C1=O | > 20000 |  |
| O=C1NC(=O)N(c2ccccc2)C(=O)/C1=C\c1ccco1 | 1300 | IC50 [2]: > 20000 nM; IC50 [3]: > 20000 nM |
| O=C1NC(=O)N(c2ccccc2)C(=O)/C1=C\c1ccccc1 | 2200 |  |
| O=C1NC(=O)N(c2ccccc2-c2ccccc2)C(=O)/C1=C\c1c[nH]c2ccccc12 | 260 | IC50 [2]: > 20000 nM; IC50 [3]: > 20000 nM |
| O=C(/C=C1/C(=O)NC(=O)N(c2ccccc2)C1=O)/C=C/c1ccccc1 | 8600 |  |
| Cn1cc(/C=C2/C(=O)NC(=O)N(c3ccccc3)C2=O)c2ccccc21 | 4100 |  |
| O=C1NC(=O)N(c2ccc(Cl)cc2)C(=O)/C1=C\c1ccccc1 | 1000 |  |
| CN1C(=O)/C(=C/c2c[nH]c3ccccc23)C(=O)N(c2cccc3ccccc23)C1=O | 5500 |  |
| O=C1NC(=O)N(c2ccccc2)C(=O)/C1=C\c1c[nH]c2ccccc12 | 900 |  |
| O=C1NC(=O)N(c2ccccc2)C(=O)/C1=C\c1ccc(C(F)(F)F)cc1 | 1300 |  |
| Cn1cc(/C=C2/C(=O)NC(=O)N(c3cccc4ccccc34)C2=O)c2ccccc21 | 180 |  |
| O=C1NC(=O)N(c2cccc3ccccc23)C(=O)/C1=C\c1c[nH]c2ccccc12 | 60 | half-life [4]: 4.1 h; AUC [5]: 170 mg·min/mL; bioavailability [6]: 62%; IC50 [2]: > 20000 nM; clearance [7]: 71 mL/min/kg; IC50 [3]: > 20000 nM; Vd [8]: 24.8 L/kg |
| O=C1NC(=O)N(c2cc(Cl)cc(Cl)c2)C(=O)/C1=C\c1ccccc1 | 1600 |  |
